Results as given in PMC8645336, “Benchmarking a highly selective USP30 inhibitor for enhancement of mitophagy and pexophagy” (Life Science Alliance, 2021).

Columns and labels:
Experiment in all cases: biochemical
Design in all cases: Ubiquigent DUB profiler selectivity panel, remaining enzyme activity as % of control
Conditions in all cases: read-out: % of control remaining
JOSD1 = JOSD1 (Homo sapiens, UniProt Q15040)
Outline: (§1)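 CMPD-39 selectivity was profiled at 1-100 μM across >40 DUBs. Cellular engagement used 2 h CMPD-39 pretreatment, then HA-Ub-PA probe for 10 min at 37°C, with USP30 band shift on immunoblot. TOMM20 ubiquitylation was blotted in YFP-PRKN hTERT-RPE1 cells after 1 h antimycin A/oligomycin A (1 μM each).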

UCHL1 = biological target: T1, UCHL1 (Homo sapiens, UniProt P09936)
T1 sequence (P09936 1-223): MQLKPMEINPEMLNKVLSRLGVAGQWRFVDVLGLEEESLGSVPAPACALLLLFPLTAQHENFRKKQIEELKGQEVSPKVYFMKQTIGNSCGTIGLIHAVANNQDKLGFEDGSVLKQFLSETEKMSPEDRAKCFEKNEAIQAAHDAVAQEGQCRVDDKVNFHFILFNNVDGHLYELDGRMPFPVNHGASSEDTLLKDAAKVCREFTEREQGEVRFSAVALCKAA
Outline: as §1

USP30 = biological target: T2, USP30 (Homo sapiens, UniProt Q70CQ3)
T2 sequence (Q70CQ3 1-517): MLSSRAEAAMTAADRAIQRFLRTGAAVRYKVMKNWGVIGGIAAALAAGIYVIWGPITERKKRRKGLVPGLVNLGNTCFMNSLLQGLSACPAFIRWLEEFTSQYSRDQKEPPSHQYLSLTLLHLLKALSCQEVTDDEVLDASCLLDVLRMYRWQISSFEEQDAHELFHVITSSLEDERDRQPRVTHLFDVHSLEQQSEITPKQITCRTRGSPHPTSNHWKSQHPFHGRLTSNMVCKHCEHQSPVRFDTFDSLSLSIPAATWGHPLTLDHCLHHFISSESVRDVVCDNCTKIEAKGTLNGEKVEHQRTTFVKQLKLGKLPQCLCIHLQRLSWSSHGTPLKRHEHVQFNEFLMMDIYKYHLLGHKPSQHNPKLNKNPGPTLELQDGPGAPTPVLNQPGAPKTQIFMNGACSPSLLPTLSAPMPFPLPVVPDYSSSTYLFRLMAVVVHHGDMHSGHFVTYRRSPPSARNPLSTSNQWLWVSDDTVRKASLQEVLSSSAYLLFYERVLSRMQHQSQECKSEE
Outline: as §1

USP8 = biological target: T3, USP8 (Homo sapiens, UniProt P40818)
T3 sequence (P40818 1-1118): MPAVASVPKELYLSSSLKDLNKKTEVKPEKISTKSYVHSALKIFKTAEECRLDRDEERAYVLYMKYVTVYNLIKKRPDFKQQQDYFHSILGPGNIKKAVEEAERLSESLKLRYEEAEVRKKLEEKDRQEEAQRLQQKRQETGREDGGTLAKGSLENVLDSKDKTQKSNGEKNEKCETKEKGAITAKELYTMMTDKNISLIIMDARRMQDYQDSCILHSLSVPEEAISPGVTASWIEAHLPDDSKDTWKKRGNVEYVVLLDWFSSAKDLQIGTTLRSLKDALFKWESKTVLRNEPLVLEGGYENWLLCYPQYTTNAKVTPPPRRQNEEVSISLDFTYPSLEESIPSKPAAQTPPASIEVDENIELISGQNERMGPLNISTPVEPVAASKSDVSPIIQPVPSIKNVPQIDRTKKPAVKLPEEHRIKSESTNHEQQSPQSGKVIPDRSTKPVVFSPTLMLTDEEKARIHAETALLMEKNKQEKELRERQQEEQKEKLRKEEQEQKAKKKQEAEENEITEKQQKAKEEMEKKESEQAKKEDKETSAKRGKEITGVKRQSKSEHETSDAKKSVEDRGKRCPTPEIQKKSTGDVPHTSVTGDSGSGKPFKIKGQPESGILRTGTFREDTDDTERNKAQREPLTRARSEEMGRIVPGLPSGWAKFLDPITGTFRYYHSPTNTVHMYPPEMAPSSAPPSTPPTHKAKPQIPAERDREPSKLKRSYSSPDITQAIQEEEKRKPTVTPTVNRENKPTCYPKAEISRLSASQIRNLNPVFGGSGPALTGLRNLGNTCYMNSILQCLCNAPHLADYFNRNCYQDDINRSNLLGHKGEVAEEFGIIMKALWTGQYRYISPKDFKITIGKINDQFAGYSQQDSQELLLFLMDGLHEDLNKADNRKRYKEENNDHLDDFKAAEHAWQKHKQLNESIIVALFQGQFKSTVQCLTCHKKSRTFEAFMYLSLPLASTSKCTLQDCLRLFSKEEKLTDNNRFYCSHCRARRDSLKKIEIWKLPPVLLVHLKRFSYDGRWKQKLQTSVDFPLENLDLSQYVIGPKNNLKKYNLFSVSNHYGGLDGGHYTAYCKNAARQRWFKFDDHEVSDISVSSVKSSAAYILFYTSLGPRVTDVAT
Outline: as §1

CC(C)(C)NS(=O)(=O)c1ccc(NC(=O)[C@H](Cc2ccccc2)NC(=O)c2ccc(F)cc2)cc1 [compound 39, CMPD-39]
remaining activity at 1 µM (JOSD1): 98.1%
remaining activity at 10 µM (JOSD1): 99.6%
remaining activity at 100 µM (JOSD1): 103%
remaining activity at 1 µM (UCHL1): 103%
remaining activity at 10 µM (UCHL1): 98.5%
remaining activity at 100 µM (UCHL1): 96.3%
remaining activity at 1 µM (USP30): 0.756%
remaining activity at 10 µM (USP30): 0.5%
remaining activity at 100 µM (USP30): 3.27%
remaining activity at 1 µM (USP8): 105%
remaining activity at 10 µM (USP8): 100%
remaining activity at 100 µM (USP8): 102%
